In patent US20250059198A1, “BRM DEGRADING COMPOUNDS AND ASSOCIATED METHODS OF USE” (Arvinas Operations, Inc., priority 2021, published 2025):

Target: T1, BRM (Homo sapiens, UniProt P51531)
T1 construct: Western Blot Screen of BRM Degradation in SW1573 Cells; endogenous in cells; host or cells: SW1573 cells
Assay: BRM degradation (Dmax and DC50) in SW1573 cells, Western blot screen / In-Cell Western screen
Format: cell-based
Details: overnight (18-20 hours) treatment; for Dmax: read-out: Dmax (%)** (% degraded)
Outline: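 Dmax and DC50 were derived from BRM levels normalised to an alpha-tubulin control, measured by chemiluminescent Western blotting of lysates or by PFA-fixed In-Cell Western on LI-COR Odyssey. SW1573 cells received compound overnight (18–20 h, 0.1% DMSO final).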

T1 sequence (P51531 whole entry): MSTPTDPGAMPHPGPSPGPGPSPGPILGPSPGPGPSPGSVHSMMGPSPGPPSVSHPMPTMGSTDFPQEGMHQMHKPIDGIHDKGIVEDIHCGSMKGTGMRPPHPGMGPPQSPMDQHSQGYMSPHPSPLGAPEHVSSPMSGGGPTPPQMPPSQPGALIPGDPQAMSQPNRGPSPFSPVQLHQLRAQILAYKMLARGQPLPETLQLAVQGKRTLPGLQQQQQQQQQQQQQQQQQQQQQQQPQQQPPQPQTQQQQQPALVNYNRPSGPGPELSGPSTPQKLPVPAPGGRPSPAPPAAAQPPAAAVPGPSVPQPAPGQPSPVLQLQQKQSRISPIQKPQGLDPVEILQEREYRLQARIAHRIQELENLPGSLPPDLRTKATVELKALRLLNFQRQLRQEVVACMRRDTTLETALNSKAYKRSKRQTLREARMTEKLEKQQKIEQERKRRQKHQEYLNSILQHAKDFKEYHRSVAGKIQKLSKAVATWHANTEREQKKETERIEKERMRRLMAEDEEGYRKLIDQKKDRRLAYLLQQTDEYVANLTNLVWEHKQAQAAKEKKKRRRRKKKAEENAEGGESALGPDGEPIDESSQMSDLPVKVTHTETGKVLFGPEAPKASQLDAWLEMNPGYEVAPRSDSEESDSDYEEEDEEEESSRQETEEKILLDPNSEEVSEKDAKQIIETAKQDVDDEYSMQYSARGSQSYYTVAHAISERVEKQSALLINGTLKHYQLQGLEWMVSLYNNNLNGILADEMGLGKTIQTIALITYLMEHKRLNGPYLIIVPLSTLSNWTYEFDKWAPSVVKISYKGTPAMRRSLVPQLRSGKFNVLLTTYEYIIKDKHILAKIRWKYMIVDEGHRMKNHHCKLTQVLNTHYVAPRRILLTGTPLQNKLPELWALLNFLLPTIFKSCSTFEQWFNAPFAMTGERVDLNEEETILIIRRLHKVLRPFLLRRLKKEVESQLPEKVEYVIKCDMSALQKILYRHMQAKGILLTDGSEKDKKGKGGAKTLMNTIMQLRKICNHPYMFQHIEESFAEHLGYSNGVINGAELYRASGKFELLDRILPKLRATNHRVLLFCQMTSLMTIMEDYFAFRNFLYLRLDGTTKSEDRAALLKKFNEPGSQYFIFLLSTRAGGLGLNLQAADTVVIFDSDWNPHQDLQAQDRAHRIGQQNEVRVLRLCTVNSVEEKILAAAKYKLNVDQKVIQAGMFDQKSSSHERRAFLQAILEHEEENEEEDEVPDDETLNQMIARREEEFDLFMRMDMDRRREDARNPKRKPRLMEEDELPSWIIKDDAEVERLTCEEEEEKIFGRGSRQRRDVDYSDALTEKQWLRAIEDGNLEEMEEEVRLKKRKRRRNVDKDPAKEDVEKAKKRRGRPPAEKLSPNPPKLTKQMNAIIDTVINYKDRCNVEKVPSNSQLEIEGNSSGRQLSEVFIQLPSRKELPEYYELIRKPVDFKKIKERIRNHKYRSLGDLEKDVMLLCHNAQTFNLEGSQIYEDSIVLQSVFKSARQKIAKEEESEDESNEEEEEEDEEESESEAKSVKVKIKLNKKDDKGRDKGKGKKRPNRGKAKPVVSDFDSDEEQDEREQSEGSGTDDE

Compound | DC50 [nM] | Dmax [%]
Cc1ncsc1-c1ccc([C@H](C)NC(=O)[C@@H]2C[C@@H](O)CN2C(=O)[C@@H](c2cc(N3CCC(CN4CCC(O[C@H]5C[C@H](N6CCC([C@H](C)n7cc(-c8cc(-c9ccccc9O)nnc8N)cn7)CC6)C5)CC4)CC3)no2)C(C)C)cc1 [Compound 9, (2S,4R)-4-hydroxy-N-[(1S)-1-[4-(4-methyl-1,3-thiazol-5-yl)phenyl]ethyl]-1-[(2R)-3-methyl-2-{3-[4-({4-[(1r,3r)-3-{4-[(1S)-1-{4-[3-amino-6-(2-hydroxyphenyl)pyridazin-4-yl]-1H-pyrazol-1-yl}ethyl]piperidin-1-yl}cyclobutoxy]piperidin-1-yl}methyl)piperidin-1-yl]-,2-oxazol-5-yl}butanoyl]pyrrolidine-2-carboxamide] | < 2.5 | > 75
Cc1ncsc1-c1ccc([C@H](C)NC(=O)[C@@H]2C[C@@H](O)CN2C(=O)[C@@H](c2cc(N3CCC(CN4CCC(N[C@H]5C[C@H](Oc6cc(N7C8CCC7CN(c7cc(-c9ccccc9O)nnc7N)C8)ccn6)C5)CC4)CC3)no2)C(C)C)cc1 [Compound 10, (2S,4R)-4-hydroxy-N-[(1S)-1-[4-(4-methyl-1,3-thiazol-5-yl)phenyl]ethyl]-1-[(2R)-3-methyl-2-(3-{4-[(4-{[(1rs,3rs)-3-[(4-{3-[3-amino-6-(2-hydroxyphenyl)pyridazin-4-yl]-3,8-diazabicyclo[3.2.1]octan-8-yl}pyridin-2-yl)oxy]cyclobutyl]amino}piperidin-1-yl)methyl]piperidin-1-yl}-1,2-oxazol-5-yl)butanoyl]pyrrolidine-2-carboxamide] | < 2.5 | > 75
Cc1ncsc1-c1ccc([C@H](C)NC(=O)[C@@H]2C[C@@H](O)CN2C(=O)[C@@H](c2cc(N3CCC(CN4CCC5(CC4)CC(N4CCN(C)[C@@H](CN6C7CCC6CN(c6cc(-c8ccccc8O)nnc6N)C7)C4)C5)CC3)no2)C(C)C)cc1 [Compound 133, (2S,4R)-1-[(2R)-2-{3-[4-({2-[(3R)-3-({3-[3-amino-6-(2-hydroxyphenyl)pyridazin-4-yl]-3,8-diazabicyclo[3.2.1]octan-8-yl}methyl)-4-methylpiperazin-1-yl]-7-azaspiro[3.5]nonan-7-yl}methyl)piperidin-1-yl]-1,2-oxazol-5-yl}-3-methylbutanoyl]-4-hydroxy-N-[(1S)-1-[4-(4-methyl-1,3-thiazol-5-yl)phenyl]ethyl]pyrrolidine-2-carboxamide] | < 2.5 | > 75
CC(C)[C@@H](C(=O)N1C[C@H](O)C[C@H]1C(=O)N[C@@H](C)c1ccc(C#N)cc1)c1cc(N2CCC(CN3CCC(O[C@H]4C[C@H](Oc5cc(N6C7CCC6CN(c6cc(-c8ccccc8O)nnc6N)CC7)ccn5)C4)CC3)CC2)no1 (stereo partly drawn) [Compound 14, (2S,4R)-N-[(1S)-1-(4-cyanophenyl)ethyl]-4-hydroxy-1-[(2R)-3-methyl-2-{3-[4-({4-[(1r,3r)-3-[(4-{3-[3-amino-6-(2-hydroxyphenyl)pyridazin-4-yl]-3,9-diazabicyclo[4.2.1]nonan-9-yl}pyridin-2-yl)oxy]cyclobutoxy]piperidin-1-yl}methyl)piperidin-1-yl]-1,2-oxazol-5-yl}butanoyl]pyrrolidine-2-carboxamide] | < 2.5 | > 75
Cc1ncsc1-c1ccc([C@H](C)NC(=O)[C@@H]2C[C@@H](O)CN2C(=O)[C@@H](c2cc(N3CCC(OC4CCN(C[C@H]5C[C@H](N6CCOC7(CCN(c8cc(-c9ccccc9O)nnc8N)CC7)C6)C5)CC4)CC3)no2)C(C)C)cc1 [Compound 56, (2S,4R)-4-hydroxy-N-[(1S)-1-[4-(4-methyl-1,3-thiazol-5-yl)phenyl]ethyl]-1-[(2R)-3-methyl-2-(3-{4-[(1-{[(1r,3r)-3-{9-[3-amino-6-(2-hydroxyphenyl)pyridazin-4-yl]-1-oxa-4,9-diazaspiro[5.5]undecan-4-yl}cyclobutyl]methyl}piperidin-4-yl)oxy]piperidin-1-yl}-1,2-oxazol-5-yl)butanoyl]pyrrolidine-2-carboxamide] | < 2.5 | > 75
Cc1ncsc1-c1ccc([C@H](C)NC(=O)[C@@H]2C[C@@H](O)CN2C(=O)[C@H](c2cc(N3CCC(OC(=O)N4CCC(O[C@H]5C[C@H](Oc6cc(N7C8CCC7CN(c7cc(-c9ccccc9O)nnc7N)C8)ccn6)C5)CC4)CC3)no2)C(C)C)cc1 [Compound 116, 1-{5-[(2S)-1-[(2S,4R)-4-hydroxy-2-([(1S)-1-[4-(4-methyl-1,3-thiazol-5-yl)phenyl]ethyl]carbamoyl}pyrrolidin-1-yl]-3-methyl-1-oxobutan-2-yl]-1,2-oxazol-3-yl}piperidin-4-yl 4-[(1r,3r)-3-[(4-{3-[3-amino-6-(2-hydroxyphenyl)pyridazin-4-yl]-3,8-diazabicyclo[3.2.1]octan-8-yl}pyridin-2-yl)oxy]cyclobutoxy]piperidine-1-carboxylate] | < 2.5 | > 75
CC(C)[C@@H](C(=O)N1C[C@H](O)C[C@H]1C(=O)N[C@@H](C)c1ccc(-c2ccnn2C)cc1)c1cc(N2CCC(CN3CCC(Oc4cc(N5CCN(c6cc(-c7ccccc7O)nnc6N)CC5)ccn4)CC3)CC2)no1 [Compound 41, (2S,4R)-1-[(2R)-2-{3-[4-({4-[(4-{4-[3-amino-6-(2-hydroxyphenyl)pyridazin-4-yl]piperazin-1-yl}pyridin-2-yl)oxy]piperidin-1-yl}methyl)piperidin-1-yl]-1,2-oxazol-5-yl}-3-methylbutanoyl]-4-hydroxy-N-[(1S)-1-[4-(1-methyl-1H-pyrazol-5-yl)phenyl]ethyl]pyrrolidine-2-carboxamide] | < 2.5 | > 75
Cc1ncsc1-c1ccc([C@H](C)NC(=O)[C@@H]2C[C@@H](O)CN2C(=O)[C@@H](c2cc(N3CCC(CN4CCC5(CC4)CC(N4CCC(C(=O)N6C7CCC6CN(c6cc(-c8ccccc8O)nnc6N)C7)CC4)C5)CC3)no2)C(C)C)cc1 [Compound 58, (2S,4R)-1-[(2R)-2-[3-(4-{[2-(4-{3-[3-amino-6-(2-hydroxyphenyl)pyridazin-4-yl]-3,8-diazabicyclo[3.2.1]octane-8-carbonyl}piperidin-1-yl)-7-azaspiro[3.5]nonan-7-yl]methyl}piperidin-1-yl)-1,2-oxazol-5-yl]-3-methylbutanoyl]-4-hydroxy-N-[(1S)-1-[4-(4-methyl-1,3-thiazol-5-yl)phenyl]ethyl]pyrrolidine-2-carboxamide] | < 2.5 | > 75
Cc1ncsc1-c1ccc([C@H](C)NC(=O)[C@@H]2C[C@@H](O)CN2C(=O)[C@@H](c2cc(N3CCC(CN4CCC(O[C@H]5C[C@H](N6CCC(C(=O)N7C8CCC7CN(c7cc(-c9ccccc9O)nnc7N)C8)CC6)C5)CC4)CC3)no2)C(C)C)cc1 [Compound 25, (2S,4R)-4-hydroxy-N-[(1S)-1-[4-(4-methyl-1,3-thiazol-5-yl)phenyl]ethyl]-1-[(2R)-3-methyl-2-{3-[4-({4-[(1r,3r)-3-(4-{3-[3-amino-6-(2-hydroxyphenyl)pyridazin-4-yl]-3,8-diazabicyclo[3.2.1]octane-8-carbonyl}piperidin-1-yl)cyclobutoxy]piperidin-1-yl}methyl)piperidin-1-yl]-1,2-oxazol-5-yl}butanoyl]pyrrolidine-2-carboxamide] | < 2.5 | > 75
CC(C)[C@@H](C(=O)N1C[C@H](O)C[C@H]1C(=O)N[C@@H](C)c1ccc(-c2ccnn2C)cc1)c1cc(N2CCC(CN3CCC(O[C@H]4C[C@H](N5CCC(C(C)n6ncc(C#Cc7cc(-c8ccccc8O)nnc7N)c6F)CC5)C4)CC3)CC2)no1 (stereo partly drawn) [Compound 84, (2S,4R)-4-hydroxy-N-[(1S)-1-[4-(1-methyl-1H-pyrazol-5-yl)phenyl]ethyl]-1-[(2R)-3-methyl-2-{3-[4-({4-[(1r,3r)-3-{4-[1-(4-{2-[3-amino-6-(2-hydroxyphenyl)pyridazin-4-yl]ethynyl}-5-fluoro-1H-pyrazol-1-yl)ethyl]piperidin-1-yl}cyclobutoxy]piperidin-1-yl}methyl)piperidin-1-yl]-1,2-oxazol-5-yl}butanoyl]pyrrolidine-2-carboxamide] | < 2.5 | > 75
CC(C)[C@@H](C(=O)N1C[C@H](O)C[C@H]1C(=O)N[C@@H](C)c1ccc(C#N)cc1)c1cc(N2CCC(CN3CCC(O[C@H]4C[C@H](Oc5cc(N6CC7CC(C6)N7c6cc(-c7ccccc7O)nnc6N)ccn5)C4)CC3)CC2)no1 [Compound 26, (2S,4R)-N-[(1S)-1-(4-cyanophenyl)ethyl]-4-hydroxy-1-[(2R)-3-methyl-2-{3-[4-({4-[(1r,3r)-3-[(4-{6-[3-amino-6-(2-hydroxyphenyl)pyridazin-4-yl]-3,6-diazabicyclo[3.1.1]heptan-3-yl}pyridin-2-yl)oxy]cyclobutoxy]piperidin-1-yl}methyl)piperidin-1-yl]-1,2-oxazol-5-yl}butanoyl]pyrrolidine-2-carboxamide] | 2.5 to 10 | > 75
Cc1ncsc1-c1ccc([C@H](C)NC(=O)[C@@H]2C[C@@H](O)CN2C(=O)[C@@H](c2cc(N3CCC(CN4CCC(O[C@H]5C[C@H](N6CCC(C#N)(CN7C8CCC7CN(c7cc(-c9ccccc9O)nnc7N)C8)CC6)C5)CC4)CC3)no2)C(C)C)cc1 [Compound 20, (2S,4R)-4-hydroxy-N-[(1S)-1-[4-(4-methyl-1,3-thiazol-5-yl)phenyl]ethyl]-1-[(2R)-3-methyl-2-{3-[4-({4-[(1r,3r)-3-[4-({3-[3-amino-6-(2-hydroxyphenyl)pyridazin-4-yl]-3,8-diazabicyclo[3.2.1]octan-8-yl}methyl)-4-cyanopiperidin-1-yl]cyclobutoxy]piperidin-1-yl}methyl)piperidin-1-yl]-1,2-oxazol-5-yl}butanoyl]pyrrolidine-2-carboxamide] | < 2.5 | > 75
